Reference: ChEMBL document CHEMBL4673406, “Discovery and Preclinical Evaluation of BMS-986242, a Potent, Selective Inhibitor of Indoleamine-2,3-dioxygenase 1” (ACS Med Chem Lett, 2021)

Legend:
[1] = Inhibition of calcium channel (unknown origin) by patch clamp method; design: species or system Homo sapiens
[2] = Protein binding in mouse plasma assessed as free fraction; format: ADME, cell-free
[3] = Half life in mouse at 0.5 mg/kg, iv; format: ADME, organism-based; details: in vivo
[4] = target: Acetylcholine receptor subunit alpha (Homo sapiens, UniProt P02708); test: Inhibition of alpha1 nAChR (unknown origin)
Sequence of Acetylcholine receptor subunit alpha (P02708 whole entry): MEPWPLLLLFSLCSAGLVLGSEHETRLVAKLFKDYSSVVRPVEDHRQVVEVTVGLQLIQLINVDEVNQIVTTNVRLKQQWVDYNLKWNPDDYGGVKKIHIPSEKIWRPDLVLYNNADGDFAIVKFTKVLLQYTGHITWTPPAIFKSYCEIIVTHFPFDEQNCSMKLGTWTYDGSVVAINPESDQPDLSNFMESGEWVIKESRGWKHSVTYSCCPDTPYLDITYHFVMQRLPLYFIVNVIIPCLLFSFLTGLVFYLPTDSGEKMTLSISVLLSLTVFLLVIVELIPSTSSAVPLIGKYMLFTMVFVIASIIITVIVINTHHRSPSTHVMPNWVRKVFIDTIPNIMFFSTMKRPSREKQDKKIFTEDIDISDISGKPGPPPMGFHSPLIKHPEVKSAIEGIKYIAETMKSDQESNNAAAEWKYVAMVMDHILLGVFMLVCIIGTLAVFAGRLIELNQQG

[5] = Protein binding in human plasma assessed as free fraction; format: ADME, cell-free
[6] = Metabolic stability in rat hepatocytes assessed as UGT-mediated compound glucuronidation by measuring half life; format: ADME, cell-based, Hepatocyte
[7] = Metabolic stability in cynomolgus monkey hepatocytes assessed as UGT-mediated compound glucuronidation by measuring half life; format: ADME, cell-based, Macaca fascicularis, Hepatocyte
[8] = Permeability of the compound at pH 7.4 by PAMPA; format: ADME; details: read-out: permeability
[9] = Oral bioavailability in mouse at 6 mg/kg; format: ADME, organism-based; details: in vivo
in vitro = details: mouse, liver microsomes
Description: Metabolic stability in mouse liver microsomes assessed as parent compound remaining at 0.5 uM measured after 10 mins

Homo sapiens = organism: Homo sapiens; test: Inhibition of sodium channel (unknown origin) at 10 uM and 1 to 4 Hz by patch clamp method relative to control
[10] = Toxicity in rat assessed as effect on cardiovascular system by telemetry; details: in vivo
hERG = hERG (Homo sapiens, UniProt Q12809); test: Inhibition of human ERG at 10 uM by patch clamp method relative to control
Sequence of hERG (Q12809 whole entry): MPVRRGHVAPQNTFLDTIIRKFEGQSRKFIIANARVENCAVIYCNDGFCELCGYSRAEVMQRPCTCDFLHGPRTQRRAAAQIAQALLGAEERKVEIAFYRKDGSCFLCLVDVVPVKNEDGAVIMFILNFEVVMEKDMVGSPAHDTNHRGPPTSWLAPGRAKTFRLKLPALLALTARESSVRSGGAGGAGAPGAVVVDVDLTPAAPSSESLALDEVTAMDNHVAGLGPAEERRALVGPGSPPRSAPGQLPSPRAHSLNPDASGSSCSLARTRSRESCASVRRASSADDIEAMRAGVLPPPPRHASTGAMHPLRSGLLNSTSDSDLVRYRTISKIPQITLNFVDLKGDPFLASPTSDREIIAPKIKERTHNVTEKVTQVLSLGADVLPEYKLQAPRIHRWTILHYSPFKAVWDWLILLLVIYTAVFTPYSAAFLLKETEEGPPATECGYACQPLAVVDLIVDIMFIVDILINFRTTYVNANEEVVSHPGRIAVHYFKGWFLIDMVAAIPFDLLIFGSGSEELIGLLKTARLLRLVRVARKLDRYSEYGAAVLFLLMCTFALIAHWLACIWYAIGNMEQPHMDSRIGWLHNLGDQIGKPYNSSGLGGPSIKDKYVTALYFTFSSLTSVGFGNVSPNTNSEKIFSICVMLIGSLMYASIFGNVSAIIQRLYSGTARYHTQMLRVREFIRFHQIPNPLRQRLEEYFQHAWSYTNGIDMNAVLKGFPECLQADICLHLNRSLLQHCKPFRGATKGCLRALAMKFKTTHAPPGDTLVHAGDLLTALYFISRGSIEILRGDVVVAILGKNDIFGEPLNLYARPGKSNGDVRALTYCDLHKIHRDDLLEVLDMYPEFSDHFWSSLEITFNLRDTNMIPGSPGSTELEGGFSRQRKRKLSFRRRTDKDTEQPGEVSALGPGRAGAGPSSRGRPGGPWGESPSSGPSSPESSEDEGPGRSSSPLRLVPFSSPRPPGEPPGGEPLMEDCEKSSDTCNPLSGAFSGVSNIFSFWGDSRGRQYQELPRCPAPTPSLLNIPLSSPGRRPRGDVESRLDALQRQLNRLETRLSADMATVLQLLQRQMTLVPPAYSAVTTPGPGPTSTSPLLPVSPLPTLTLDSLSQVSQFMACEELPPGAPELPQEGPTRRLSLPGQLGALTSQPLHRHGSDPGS

[11] = AUC in mouse at 0.5 mg/kg, iv; format: ADME, organism-based; design: dose 0.5 mg/kg; details: in vivo
[12] = Permeability across basal to apical side in human Caco-2 cells; format: ADME, cell-based; details: read-out: permeability
[13] = target: Indoleamine 2,3-dioxygenase 1 (Mus musculus) (UniProt P28776); test: In vivo inhibition of IDO1 in nu/nu mouse xenografted with human SK-OV-3 cells assessed as reduction in kynurenine level at 30 mg/kg, po qd by HPLC-MS/MS analysis relative to control; format: functional, organism-based
Sequence of Indoleamine 2,3-dioxygenase 1 (Mus musculus) (P28776 whole entry, looked up): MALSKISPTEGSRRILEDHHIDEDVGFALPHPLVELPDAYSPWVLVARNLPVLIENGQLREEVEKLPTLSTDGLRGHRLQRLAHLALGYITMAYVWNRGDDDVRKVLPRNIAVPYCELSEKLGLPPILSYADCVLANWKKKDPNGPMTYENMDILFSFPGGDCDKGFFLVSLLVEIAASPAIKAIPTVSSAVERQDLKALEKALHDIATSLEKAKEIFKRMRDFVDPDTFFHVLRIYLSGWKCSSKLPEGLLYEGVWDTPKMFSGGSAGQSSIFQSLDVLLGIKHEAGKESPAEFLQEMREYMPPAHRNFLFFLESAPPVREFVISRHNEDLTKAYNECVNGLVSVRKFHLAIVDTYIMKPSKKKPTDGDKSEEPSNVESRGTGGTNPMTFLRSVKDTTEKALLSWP

[14] = AUC in dog at 5 mg/kg, po; format: ADME, organism-based, Canis lupus familiaris; design: dose 5 mg/kg; details: in vivo
[15] = AUC in cynomolgus monkey at 1 mg/kg, iv; format: ADME, organism-based, Macaca fascicularis; design: dose 1 mg/kg; details: in vivo
[16] = Oral bioavailability in rat at 2 mg/kg; format: ADME, organism-based; details: in vivo
[17] = Volume of distribution at steady state in cynomolgus monkey at 1 mg/kg, iv; format: ADME, organism-based, Macaca fascicularis; details: in vivo
[18] = target: T1, Nuclear receptor subfamily 1 group I member 2 (Homo sapiens, UniProt O75469); test: Transactivation of PXR (unknown origin); format: ADME
T1 sequence (O75469 whole entry): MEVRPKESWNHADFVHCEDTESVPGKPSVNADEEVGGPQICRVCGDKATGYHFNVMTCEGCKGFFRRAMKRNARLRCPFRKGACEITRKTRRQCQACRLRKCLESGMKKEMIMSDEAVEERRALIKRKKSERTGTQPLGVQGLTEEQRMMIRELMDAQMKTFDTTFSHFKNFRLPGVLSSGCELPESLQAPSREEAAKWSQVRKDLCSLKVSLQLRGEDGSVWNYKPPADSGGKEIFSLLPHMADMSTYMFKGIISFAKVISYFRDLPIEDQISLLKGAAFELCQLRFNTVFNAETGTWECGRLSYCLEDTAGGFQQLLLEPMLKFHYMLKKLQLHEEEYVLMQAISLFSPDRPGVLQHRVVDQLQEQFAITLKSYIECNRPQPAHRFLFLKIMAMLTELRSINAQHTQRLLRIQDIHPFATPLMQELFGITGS

[19] = Oral bioavailability in cynomolgus monkey at 5 mg/kg; format: ADME, organism-based, Macaca fascicularis; details: in vivo
[20] = Volume of distribution at steady state in dog at 1 mg/kg, iv; format: ADME, organism-based, Canis lupus familiaris; details: in vivo
[21] = AUC in mouse at 6 mg/kg, po; format: ADME, organism-based; design: dose 6 mg/kg; details: in vivo
[22] = AUC in cynomolgus monkey at 5 mg/kg, po; format: ADME, organism-based, Macaca fascicularis; design: dose 5 mg/kg; details: in vivo
[23] = Permeability across apical to basal side in human Caco-2 cells; format: ADME, cell-based; details: read-out: permeability

## C[C@@H](NC(=O)c1ccc(Cl)cc1)[C@H]1CC[C@@H](c2ccnc3ccc(F)cc32)CC1
[1]
  IC50: > 25 µM
[2]
  Fu: < 0.2%
[3]
  t1/2: 8 min
[4]
  IC50: 12.3 µM
[5]
  Fu: < 0.3%
[6]
  half-life: 93 min
[7]
  half-life: > 120 min
[8]
  Papp: 283 ×10⁻⁶ cm/s
[9]
  F: 152%
In vitro
  remaining at 10 min, 0.5 µM: 21%
Homo sapiens
  inhibition: < 20%
[10]
  Activity: Non-Toxic
hERG
  inhibition at 10 µM: 87%
[11]
  AUC: 0.69 µM·h
[12]
  Papp B→A: 5.5 ×10⁻⁶ cm/s
[13]
  inhibition: 59%
[14]
  AUC: 17.4 µM·h
[15]
  AUC: 3.4 µM·h
[16]
  bioavailability: 127%
[17]
  Vdss: 1 L/kg
[18]
  EC50: > 50 µM
[19]
  bioavailability: 42%
[20]
  Vdss: 3.87 L/kg
[21]
  AUC: 12.6 µM·h
[22]
  AUC: 7.1 µM·h
[23]
  Papp A→B: 8.8 ×10⁻⁶ cm/s
